The conditions of series [1]: snar bond.
For series [2] the following is noted: snar bond. This is another data set of the same source.
Series [3] has as its target CFTR-mediated chloride transport (Homo sapiens, UniProt P13569). The class given is cell-based. To be noted: enteroid cells incubated with test compound 18-24 hours, acute 10 μM forskolin and 300 nM Compound III; for Max. Activity: % of chloride transport with 3 μM Compound A, 3 μM Compound II and 300 nM acute Compound III triple combination control. The essentials: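 Human intestinal enteroid cells incubated with compound 18–24 h at 37° C., then membrane potential dye (FLIPR) read 15 min after chloride-free stimulation with 10 μM forskolin, 100 μM IBMX and 300 nM Compound III. AUC expressed as % of triple-combination control (3 μM Compound A, 3 μM Compound II, 300 nM Compound III).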

Where [4] appears, read: from 2-chloro-6-[3-(4,4-dimethylpentoxy)-2-oxo-pyrrolidin-1-yl]-N-[[6-[3-[(3S)-5,5-dimethylpyrrolidin-3-yl]propylamino]-2-pyridyl]sulfonyl]pyridine-3-carboxamide (dihydrochloride salt), 15-membered ring, K2CO3, NMP, 24.7 mM, 155.0 °C.

Read-outs that look alike come from different tables or passages of the source. Bounds are passed on as bounds.

Sequence of CFTR-mediated chloride transport (P13569 whole entry, looked up): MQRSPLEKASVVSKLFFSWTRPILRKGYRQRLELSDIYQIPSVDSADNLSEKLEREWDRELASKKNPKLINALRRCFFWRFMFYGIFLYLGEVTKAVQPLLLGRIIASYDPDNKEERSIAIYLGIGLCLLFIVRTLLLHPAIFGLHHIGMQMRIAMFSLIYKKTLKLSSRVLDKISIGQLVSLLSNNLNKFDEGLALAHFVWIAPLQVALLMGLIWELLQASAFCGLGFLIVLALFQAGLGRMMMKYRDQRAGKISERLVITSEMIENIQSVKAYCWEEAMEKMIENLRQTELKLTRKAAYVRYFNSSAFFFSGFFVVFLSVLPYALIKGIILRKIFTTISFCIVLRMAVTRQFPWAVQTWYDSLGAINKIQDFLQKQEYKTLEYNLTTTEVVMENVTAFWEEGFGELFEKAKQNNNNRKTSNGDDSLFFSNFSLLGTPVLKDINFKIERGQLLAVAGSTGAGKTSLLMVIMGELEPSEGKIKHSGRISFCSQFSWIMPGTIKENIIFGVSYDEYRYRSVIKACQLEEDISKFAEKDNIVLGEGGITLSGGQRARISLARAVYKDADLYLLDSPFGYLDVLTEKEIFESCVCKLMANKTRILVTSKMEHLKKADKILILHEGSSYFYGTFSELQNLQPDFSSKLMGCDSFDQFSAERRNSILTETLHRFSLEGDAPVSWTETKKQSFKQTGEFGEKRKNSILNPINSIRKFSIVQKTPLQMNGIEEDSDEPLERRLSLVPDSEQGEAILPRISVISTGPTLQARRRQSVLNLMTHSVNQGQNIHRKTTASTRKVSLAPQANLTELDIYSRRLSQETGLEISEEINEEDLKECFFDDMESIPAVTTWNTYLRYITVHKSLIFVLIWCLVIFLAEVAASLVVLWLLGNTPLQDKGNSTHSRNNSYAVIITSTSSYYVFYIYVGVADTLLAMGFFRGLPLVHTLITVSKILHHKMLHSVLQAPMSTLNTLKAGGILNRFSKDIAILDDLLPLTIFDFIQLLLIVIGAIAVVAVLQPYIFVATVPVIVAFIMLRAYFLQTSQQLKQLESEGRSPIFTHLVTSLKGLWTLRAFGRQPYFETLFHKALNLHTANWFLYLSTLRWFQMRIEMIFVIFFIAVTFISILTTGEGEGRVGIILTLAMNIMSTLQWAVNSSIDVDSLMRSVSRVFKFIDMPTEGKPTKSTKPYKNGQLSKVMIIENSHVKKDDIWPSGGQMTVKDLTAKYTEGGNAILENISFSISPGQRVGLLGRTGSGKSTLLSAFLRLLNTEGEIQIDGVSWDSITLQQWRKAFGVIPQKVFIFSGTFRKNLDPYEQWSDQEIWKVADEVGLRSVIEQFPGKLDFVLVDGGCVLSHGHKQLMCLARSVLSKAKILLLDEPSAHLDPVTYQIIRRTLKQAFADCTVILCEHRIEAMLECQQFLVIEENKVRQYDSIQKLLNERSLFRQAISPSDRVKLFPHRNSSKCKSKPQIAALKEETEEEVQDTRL

Turning to `CC1(C)CC2CC(F)CNc3cccc(n3)S(=O)(=O)NC(=O)c3ccc(-n4ccc(OCCC5C6(CC6)C56CC6)n4)nc3N1C2` (stereo not shown), in series [1] (from 2-chloro-N-[[6-[[3-(5,5-dimethylpyrrolidin-3-yl)-2-fluoro-propyl]amino]-2-pyridyl]sulfonyl]-6-[3-(2-dispiro[2.0.2.1]heptan-7-ylethoxy)pyrazol-1-yl]pyridine-3-carboxamide (dihydrochloride salt), 15-membered ring, K2CO3, NMP, 32.3 mM, 150.0 °C), the ring closure, isolated yield came out at 76%.

In the case of `CC1(C)CC2CCCCNc3ccc(cn3)S(=O)(=O)NC(=O)c3ccc(-n4ccc(OCC5C6(CC6)C56CC6)n4)nc3N1C2` (stereo not shown), in series [1] (from 2-chloro-N-[[6-[4-(5,5-dimethylpyrrolidin-3-yl)butylamino]-3-pyridyl]sulfonyl]-6-[3-(dispiro[2.0.2.1]heptan-7-ylmethoxy)pyrazol-1-yl]pyridine-3-carboxamide (dihydrochloride salt), 17-membered ring, K2CO3/CsF, NMP, 115.5 mM), the ring closure, isolated yield is 22%.

In turn, `CC1(C)CC2CCCn3ccc(n3)S(=O)(=O)NC(=O)c3ccc(-n4ccc(OCCC5C(C)(C)C5(C)C)n4)nc3N1C2` (stereo not shown) registered a ring closure, isolated yield in series [1] (from CC(C)(C)OC(=O)N1CC(CCCn2ccc(S(=O)(=O)NC(=O)c3ccc(-n4ccc(OCCC5C(C)(C)C5(C)C)n4)nc3Cl)n2)CC1(C)C, 14-membered ring, K2CO3/3A MS, NMP, 49.2 mM, 160.0 °C, 2 steps) of 20%.

Consider `CC1(C)CCC2CCCNc3cccc(n3)S(=O)(=O)NC(=O)c3ccc(-n4ccc(OCC5C6(CC6)C56CC6)n4)nc3N21` (stereo not shown), for which the ring closure, isolated yield in series [1] (from 2-chloro-N-[[6-[3-(5,5-dimethylpyrrolidin-2-yl)propylamino]-2-pyridyl]sulfonyl]-6-[3-(dispiro[2.0.2.1]heptan-7-ylmethoxy)pyrazol-1-yl]pyridine-3-carboxamide (dihydrochloride salt), 14-membered ring, K2CO3/CsF, NMP, 123.1 mM) was 41%.

In series [1] (from CC1(C)C[C@H](CCCNc2cc(OCc3ccccc3)cc(S(=O)(=O)NC(=O)c3ccc(-n4ccc(OCCC5C6(CC6)C56CC6)n4)nc3Cl)n2)CN1, 15-membered ring, K2CO3/CsF, DMSO, 15.3 mM, 160.0 °C, 15.0 h), `CC1(C)C[C@@H]2CCCNc3cc(OCc4ccccc4)cc(n3)S(=O)(=O)NC(=O)c3ccc(-n4ccc(OCCC5C6(CC6)C56CC6)n4)nc3N1C2` registered a ring closure, isolated yield of 61%.

In series [1] (from CC1(C)C[C@H](CCCNc2cc(OCc3ccccc3)cc(S(=O)(=O)NC(=O)c3ccc(-n4ccc(OCCCC5(C(F)(F)F)CC5)n4)nc3Cl)n2)CN1, 15-membered ring, K2CO3/CsF, DMSO, 14.1 mM, 160.0 °C, 15.0 h), `CC1(C)C[C@@H]2CCCNc3cc(OCc4ccccc4)cc(n3)S(=O)(=O)NC(=O)c3ccc(-n4ccc(OCCCC5(C(F)(F)F)CC5)n4)nc3N1C2` had a ring closure, isolated yield of 56%.

`CC1(C)C[C@@H]2CCCNc3ccc(OCc4ccccc4)c(n3)S(=O)(=O)NC(=O)c3ccc(-n4ccc(OCCC5C6(CC6)C56CC6)n4)nc3N1C2` came in with a ring closure, isolated yield in series [1] (from CC1(C)C[C@H](CCCNc2ccc(OCc3ccccc3)c(S(=O)(=O)NC(=O)c3ccc(-n4ccc(OCCC5C6(CC6)C56CC6)n4)nc3Cl)n2)CN1, 15-membered ring, K2CO3, NMP, 57.2 mM, 150.0 °C, 20.0 h) of 37%.

`CC1(C)C[C@@H]2CCCNc3ccc(OCc4ccccc4)c(n3)S(=O)(=O)NC(=O)c3ccc(-n4ccc(OCCCC5(C(F)(F)F)CC5)n4)nc3N1C2`: in series [1] (from N-[[3-benzyloxy-6-[3-[(3S)-5,5-dimethylpyrrolidin-3-yl]propylamino]-2-pyridyl]sulfonyl]-2-chloro-6-[3-[3-[1-(trifluoromethyl)cyclopropyl]propoxy]pyrazol-1-yl]pyridine-3-carboxamide (ditrifluoroacetate salt), 15-membered ring, K2CO3, NMP, 42.6 mM, 150.0 °C), the ring closure, isolated yield came to 39%.

`CC1(C)C[C@@H]2CCCNc3cccc(n3)S(=O)(=O)NC(=O)c3ccc(-n4ccc(OCC(O[Si](C)(C)C(C)(C)C)C5C6(CC6)C56CC6)n4)nc3N1C2` (stereo partly shown): the ring closure, isolated yield in series [1] (from CC1(C)C[C@H](CCCNc2cccc(S(=O)(=O)NC(=O)c3ccc(-n4ccc(OCC(O[Si](C)(C)C(C)(C)C)C5C6(CC6)C56CC6)n4)nc3Cl)n2)CN1, 15-membered ring, K2CO3/MS, DMSO, 9.9 mM, 140.0 °C, 12.0 h) was determined as 55%.

With `CC1(C)C[C@@H]2CCCNc3cccc(n3)S(=O)(=O)NC(=O)c3ccc(Cl)nc3N1C2`, in series [1] (from 2,6-dichloro-N-[[6-[3-[(3S)-5,5-dimethylpyrrolidin-3-yl]propylamino]-2-pyridyl]sulfonyl]pyridine-3-carboxamide (dihydrochloride salt), 15-membered ring, K2CO3/CsF/3A MS, NMP, 113.8 mM, 150.0 °C), the ring closure, isolated yield worked out at 54%.

Turning to `CC1(C)C[C@@H]2CCCNc3cccc(n3)S(=O)(=O)NC(=O)c3ccc(N4CCC(OCCC5C6(CC6)C56CC6)C4=O)nc3N1C2` (stereo partly shown), in series [1] (from 2-chloro-N-[[6-[3-[(3S)-5,5-dimethylpyrrolidin-3-yl]propylamino]-2-pyridyl]sulfonyl]-6-[3-(2-dispiro[2.0.2.1]heptan-7-ylethoxy)-2-oxo-pyrrolidin-1-yl]pyridine-3-carboxamide (dihydrochloride salt), 15-membered ring, K2CO3, NMP, 24.0 mM, 150.0 °C), the ring closure, isolated yield was found to be 52%.

With `CC1(C)C[C@@H]2CCCNc3nc(ccc3OCc3ccccc3)S(=O)(=O)NC(=O)c3ccc(-n4ccc(OCCC5C6(CC6)C56CC6)n4)nc3N1C2`, the ring closure, isolated yield in series [1] (from CC1(C)C[C@H](CCCNc2nc(S(=O)(=O)NC(=O)c3ccc(-n4ccc(OCCC5C6(CC6)C56CC6)n4)nc3Cl)ccc2OCc2ccccc2)CN1, 15-membered ring, K2CO3/CsF, DMSO, 17.2 mM, 160.0 °C, 15.0 h) amounted to 83%.

In the case of `CC1(C)C[C@@H]2CCCNc3nc(ccc3OCc3ccccc3)S(=O)(=O)NC(=O)c3ccc(-n4ccc(OCCCC5(C(F)(F)F)CC5)n4)nc3N1C2`, the ring closure, isolated yield in series [1] (from CC1(C)CC(CCCNc2nc(S(=O)(=O)NC(=O)c3ccc(-n4ccc(OCCCC5(C(F)(F)F)CC5)n4)nc3Cl)ccc2OCc2ccccc2)CN1, 15-membered ring, K2CO3/CsF, DMSO, 17.7 mM, 160.0 °C, 15.0 h) is 82%.

Turning to `CC1CCC2CN(c3nc(Cl)ccc3C(=O)NS(=O)(=O)c3cccc(n3)N1)C(C)(C)C2` (stereo not shown), in series [1] (from CC(CCC1CN(C(=O)OC(C)(C)C)C(C)(C)C1)Nc1cccc(S(=O)(=O)NC(=O)c2ccc(Cl)nc2Cl)n1, 15-membered ring, K2CO3/CsF/3A MS, DMSO, 229.0 mM, 140.0 °C, 2 steps), the ring closure, isolated yield worked out at 31%.

As to `[2H]C([2H])(COc1ccn(-c2ccc3c(n2)N2C[C@@H](CCCNc4nc(ccc4OCc4ccccc4)S(=O)(=O)NC3=O)CC2(C)C)n1)C1C2(CC2)C12CC2`, in series [1] (from [2H]C([2H])(COc1ccn(-c2ccc(C(=O)NS(=O)(=O)c3ccc(OCc4ccccc4)c(NCCC[C@@H]4CN(C(=O)OC(C)(C)C)C(C)(C)C4)n3)c(Cl)n2)n1)C1C2(CC2)C12CC2, 15-membered ring, K2CO3/CsF/4A MS, DMSO, 51.0 mM, 150.0 °C, 2 steps), the ring closure, isolated yield stood at 68%.

Regarding `[2H]C([2H])(Oc1ccn(-c2ccc3c(n2)N2C[C@@H](CCCNc4cccc(n4)S(=O)(=O)NC3=O)CC2(C)C)n1)C([2H])([2H])C1C2(CC2)C12CC2`, the ring closure, isolated yield in series [1] (from [2H]C([2H])(Oc1ccn(-c2ccc(C(=O)NS(=O)(=O)c3cccc(NCCC[C@@H]4CN(C(=O)OC(C)(C)C)C(C)(C)C4)n3)c(Cl)n2)n1)C([2H])([2H])C1C2(CC2)C12CC2, 15-membered ring, K2CO3/3A MS, NMP, 22.2 mM, 155.0 °C, 2 steps) is 60%.

“12,12,19-trimethyl-8-(3-{2-[1-(trifluoromethyl)cyclopropyl]ethoxy}-1H-pyrazol-1-yl)-2λ^6-thia-3,9,11,19,21-pentaazatetracyclo[18.2.2.111,14.05,10]pentacosa-1(23),5,7,9,20(24),21-hexaene-2,2,4-trione (dihydrochloride salt)” showed a ring closure, isolated yield in series [1] (17-membered ring, K2CO3/CsF, DMSO, 42.1 mM, 150.0 °C) of 39%.

For `CC(C)(C)CCCOC1CCN(c2ccc3c(n2)N2C[C@@H](CCCNc4cccc(n4)S(=O)(=O)NC3=O)CC2(C)C)C1=O` (single isomer, unassigned; diastereomer 1), the ring closure, isolated yield in series [1] (setting [4]) stood at 20%.

Take `CC(C)(C)CCCOC1CCN(c2ccc3c(n2)N2C[C@@H](CCCNc4cccc(n4)S(=O)(=O)NC3=O)CC2(C)C)C1=O` (single isomer, unassigned; diastereomer 2): the ring closure, isolated yield in series [1] (setting [4]) stood at 19%.

`CC1(C)CC2CCCCn3ccc(n3)S(=O)(=O)NC(=O)c3ccc(-n4ccc(OCCCC5(C(F)(F)F)CC5)n4)nc3N1C2` (stereo not shown) [Compound 275, 21,21-Dimethyl-4-(3-{3-[1-(trifluoromethyl)cyclopropyl]propoxy}-1H-pyrazol-1-yl)-10λ^6-thia-1,3,9,14,23-pentaazatetracyclo[17.2.1.111,14.02,7]tricosa-2,4,6,11(23),12-pentaene-8,10,10-trione]: the ring closure, yield after HPLC in series [2] (from CC1(C)CC(CCCCn2ccc(S(=O)(=O)NC(=O)c3ccc(-n4ccc(OCCCC5(C(F)(F)F)CC5)n4)nc3Cl)n2)CN1, 15-membered ring, K2CO3/CsF/3A MS, DMSO, 24.7 mM, 150.0 °C, 18.0 h) turned out to be 47%. In series [3], the concentration giving a half-maximal response (EC50) fell in the range of 1000 to 3000 nM and the “Max. Activity” value is listed as “++ (++ is 30-60%)”.

In series [2] (from Cc1nn(CCCC2CNC(C)(C)C2)cc1S(=O)(=O)NC(=O)c1ccc(-n2ccc(OCC(C)(C)C(F)(F)F)n2)nc1Cl, 14-membered ring, K2CO3/CsF/3A MS, DMSO, 25.9 mM, 150.0 °C), `Cc1nn2cc1S(=O)(=O)NC(=O)c1ccc(-n3ccc(OCC(C)(C)C(F)(F)F)n3)nc1N1CC(CCC2)CC1(C)C` (stereo not shown) [Compound 281, 12,20,20-trimethyl-4-[3-(3,3,3-trifluoro-2,2-dimethylpropoxy)-1H-pyrazol-1-yl]-10λ^6-thia-1,3,9,13,14-pentaazatetracyclo[16.2.1.111,14.02,7]docosa-2,4,6,11(22),12-pentaene-8,10,10-trione] yielded a ring closure, yield after HPLC of 17%. Also, in series [3], the EC50 lay in the range of 1000 to 3000 nM and the “Max. Activity” value is listed as “+ (+ is <30%)”.

Take `CC1(C)C[C@@H]2CCCNc3cccc(n3)S(=O)(=O)NC(=O)c3ccc(C4=CCCCO4)nc3N1C2` [Compound 303, (14S)-8-(3,4-dihydro-2H-pyran-6-yl)-12,12-dimethyl-2λ^6-thia-3,9,11,18,23-pentaazatetracyclo[17.3.1.111,14.05,10]tetracosa-1(22),5,7,9,19(23),20-hexaene-2,2,4-trione]: the ring closure, yield after HPLC in series [2] (from CC1(C)C[C@H](CCCNc2cccc(S(=O)(=O)NC(=O)c3ccc(C4=CCCCO4)nc3Cl)n2)CN1, 15-membered ring, K2CO3, NMP, 25.7 mM, 180.0 °C) worked out at 3%. In addition, in series [3], the EC50 was less than 1000 nM and the “Max. Activity” value was “+++ (+++ is >60%)”.

One may read the EC50 as the concentration that produces a half-maximal response.

For the origin of these results see patent publication US11866450B2, “Modulators of Cystic Fibrosis Transmembrane Conductance regulator, pharmaceutical compositions, methods of treatment, and process for making the modulators” (priority 2018, dated 2024).
